Data reported in US7456152B2, “Peptide inhibitors of thrombin as potent anticoagulants” (priority 2004, dated 2008).
Several values for one entry are separate records, joined by “and”; a condition that tells them apart may be missing. Identical values can stand only once. Like-named read-outs stand apart in the source and are kept apart here. Ends that are not written are not given here.

Assays:
human α-thrombin [1] = target: T1, human α-thrombin (Homo sapiens, UniProt P00734); assay: Clotting assay: fibrinogen clotting by human thrombin, concentration doubling the clotting time (DCT) = IC50; type: biochemical
T1 construct: Bovine and human α-thrombins were supplied by Haematologic Technologies Inc (VT, USA); cleaved off efficiently by thrombin to generate the free N-terminus of the A-chain of human thrombin; purchased Haematologic Technologies Inc (VT, USA)
Experimental: The clotting assays were carried out by use of the protocols described previously (DiMaio, J., Gibbs, B., Munn, D., Lefebvre, J., Ni, F., and Konishi, Y. (1990) J. Biol. Chem. 265, 21698-21703; and Witting, J. I., Bourdon, P., Brezniak, D. V., Maraganore, J. M., and Fenton, J. W. (1992) Biochem. J. 283 (Pt 3), 737-743) The assay employs bovine plasma fibrinogen dissolved at 0.1% in 50 mM Tris-Cl, 100 mM NaCl, 0.1% PEG-8000 at pH 7.6 (i.e. the clotting buffer). Each assay mixture contained a certain concentration of the peptide, and the reaction was started by the addition of human thrombin to a final concentration of 0.1 NIH unit/ml. Optical absorbance of the assay mixtures was measured at 420 nm and 37° C. using the Spectramax™ plate reader. The onset clotting time was determined as an intersection of the baseline and the initial slope of the O.D. change as a result of fibrin clot formation. The concentration of a peptide needed to double the clotting time (DCT) was defined as IC50. Peptide concentrations were determined by comparing the O.D.280 values of peptide stock solutions in the clotting buffer (vide supra) with the predicted extinction coefficient for each peptide (Gill, S. C. and von Hippel, P. H. (1989) Anal. Biochem. 182, 319-326).
The peptide concentration for doubling the clotting time (DCT) was defined as the IC50 value.

human α-thrombin [2] = target: T1, human α-thrombin; assay: Inhibition of the amidolytic activity of thrombin (Tos-Gly-Pro-Arg-p-nitroanilide hydrolysis); type: biochemical
Experimental: Kinetics of thrombin-catalyzed hydrolysis of the chromogenic substrate Tos-Gly-Pro-Arg-p-nitroanilide were followed by absorbance at 405 nm on a Spectramax plate reader thermostated at either 25° C. or 37° C. according to the method of Maragnore et al (supra). The concentrations of Tos-Gly-Pro-Arg-p-nitroanilide ranged from 2 to 400 μM. Initial rates were calculated under conditions of <15% hydrolysis of the total substrate. The KM and Vmax values were calculated accordingly and kcat values were determined by dividing Vmax by the enzyme (thrombin) concentration. The inhibition assays were performed in the clotting buffer with a certain fixed concentration of α-thrombin (˜0.3 nM) such that linear progress curves were achieved within at least 15 min in the absence of the inhibition. The total volume of the solution was fixed at 200 μl. Reactions were initiated by addition of the chromogenic substrate to the wells containing thrombin and a certain concentration of the peptide inhibitors premixed for less than 2 min. Alternatively, the substrate was first mixed with the peptide inhibitor and the total volume was adjusted to 120 μL using the clotting buffer. Eighty microliters of human α-thrombin in the clotting buffer (˜0.3 nM final concentration) was added to initiate the reaction. The concentration of the peptides ranged from 0.5 nM to 10 μM. Kinetics data from initial rate experiments were used to construct Lineweaver-Burke plot; i.e. the relationship of (substrate concentration)^−1 versus (initial velocity)^−1 which. were analysed by linear regression with MicroCal Origin 4.1 program (MicroCal, MD) or using the GraphPad Prism software. The Ki values of the inhibitors were determined using the equation: Ki=[I]/{(SL0/SL1)−1}, where
[I] is the inhibitor concentration,
SL0 is the slope of the reaction in the absence of inhibitors, and
SL1 is the slope of the reaction in the presence of the inhibitor.
Alternatively, Dixon plots of inverse velocity versus the inhibitor concentrations were generated with the Sigmaplot™ software. Every Dixon plot contained an array of data corresponding to different substrate concentrations and the Ki values were determined from the intersections. Following Peptide Cleavage by HPLC

[3] = Amidolytic assay, 25° C. (Ki, nM), Tos-Gly-Pro-Arg-pNA, 25° C.

WDPRPQSRNDGDFEPIPEEYLQ [WD22-SR-P]
IC50 (human α-thrombin [1]): 0.053 ± 0.002 µM

CC[C@H](C)[C@H](NC(=O)[C@H](CCC(=O)O)NC(=O)[C@H](CCC(=O)O)NC(=O)[C@H](Cc1ccccc1)NC(=O)[C@H](CC(=O)O)NC(=O)CNC(=O)[C@H](CC(=O)O)NC(=O)[C@H](CC(N)=O)NC(=O)[C@H](Cc1c[nH]cn1)NC(=O)[C@H](CO)NC(=O)[C@H](CCC(N)=O)NC(=O)[C@@H]1CCCN1C(=O)[C@H](CCCNC(=N)N)NC(=O)[C@@H]1CCCN1C(=O)[C@H](CC(=O)O)NC(=O)[C@@H](N)Cc1ccccc1)C(=O)N1CCC[C@H]1C(=O)N[C@@H](CCC(=O)O)C(=O)N[C@@H](CCC(=O)O)C(=O)N[C@@H](Cc1ccc(O)cc1)C(=O)N[C@@H](CC(C)C)C(=O)N[C@@H](CCC(N)=O)C(=O)O [FD22^(a)]
IC50 (human α-thrombin [1]): 0.05 ± 0.015 µM
Ki (human α-thrombin [2]; [3]): 55 ± 10 nM

FNPRP [FN, FNPRP]
IC50 (human α-thrombin [1]): > 100 µM
IC50 values (in words) (human α-thrombin [1]; clotting assay, FNPRP peptide alone): submillimolar
Ki (human α-thrombin [2]; [3]): > 2000 nM

WDPRPQSRNDGDYEPIPEEYLQ [WD22-SR-YP]
IC50 (human α-thrombin [1]): 0.032 ± 0.003 µM

CC[C@H](C)[C@H](NC(=O)[C@H](CCC(=O)O)NC(=O)[C@H](CCC(=O)O)NC(=O)[C@H](Cc1ccccc1)NC(=O)[C@H](CC(=O)O)NC(=O)CNC(=O)[C@H](CC(=O)O)NC(=O)[C@H](CC(N)=O)NC(=O)[C@H](Cc1c[nH]cn1)NC(=O)[C@H](CC(=O)O)NC(=O)[C@H](CCC(N)=O)NC(=O)[C@@H]1CCCN1C(=O)[C@H](CCCNC(=N)N)NC(=O)[C@@H]1CCCN1C(=O)[C@H](CCC(=O)O)NC(=O)[C@@H](N)Cc1ccccc1)C(=O)N1CCC[C@H]1C(=O)N[C@@H](CCC(=O)O)C(=O)N[C@@H](CCC(=O)O)C(=O)N[C@@H](Cc1ccc(O)cc1)C(=O)N[C@@H](CC(C)C)C(=O)N[C@@H](CCC(N)=O)C(=O)O [FE22-D]
IC50 (human α-thrombin [1]): > 0.125 µM

CC[C@H](C)[C@H](NC(=O)[C@H](CCC(=O)O)NC(=O)[C@H](CCC(=O)O)NC(=O)[C@H](Cc1ccccc1)NC(=O)[C@H](CC(=O)O)NC(=O)CNC(=O)[C@H](CC(=O)O)NC(=O)[C@H](CC(N)=O)NC(=O)[C@H](Cc1c[nH]cn1)NC(=O)[C@H](CO)NC(=O)[C@H](CCC(N)=O)NC(=O)[C@@H]1CCCN1C(=O)[C@H](CCCNC(=N)N)NC(=O)[C@@H]1CCCN1C(=O)[C@H](CC(N)=O)NC(=O)[C@@H](N)Cc1ccccc1)C(=O)N1CCC[C@H]1C(=O)N[C@@H](CCC(=O)O)C(=O)N[C@@H](CCC(=O)O)C(=O)N[C@@H](Cc1ccc(O)cc1)C(=O)N[C@@H](CC(C)C)C(=O)N[C@@H](CCC(N)=O)C(=O)O [FN22^(a)]
IC50 (human α-thrombin [1]): 0.15 ± 0.015 µM
Ki (human α-thrombin [2]; [3]): 100 ± 10 nM

WDPRPQRHNDGDFEPIPEEYLQ [WD22-R-P]
IC50 (human α-thrombin [1]): ~0.0067 µM and 0.0067 µM
Ki (human α-thrombin [2]): 171 ± 12 nM

CC[C@H](C)[C@H](NC(=O)[C@H](CCC(=O)O)NC(=O)[C@H](CCC(=O)O)NC(=O)[C@H](Cc1ccccc1)NC(=O)[C@H](CC(=O)O)NC(=O)CNC(=O)[C@H](CC(=O)O)NC(=O)[C@H](CC(N)=O)NC(=O)[C@H](Cc1c[nH]cn1)NC(=O)[C@H](CC(=O)O)NC(=O)[C@H](CCC(N)=O)NC(=O)[C@@H]1CCCN1C(=O)[C@H](CCCNC(=N)N)NC(=O)[C@@H]1CCCN1C(=O)[C@H](CC(=O)O)NC(=O)[C@@H](N)Cc1ccccc1)C(=O)N1CCC[C@H]1C(=O)N[C@@H](CCC(=O)O)C(=O)N[C@@H](CCC(=O)O)C(=O)N[C@@H](Cc1ccc(O)cc1)C(=O)N[C@@H](CC(C)C)C(=O)N[C@@H](CCC(N)=O)C(=O)O [FD22-D]
IC50 (human α-thrombin [1]): 0.053 ± 0.002 µM

CC[C@H](C)[C@H](NC(=O)[C@H](CCC(N)=O)NC(=O)[C@@H]1CCCN1C(=O)[C@H](CCCNC(=N)N)NC(=O)[C@@H]1CCCN1C(=O)[C@H](CCC(N)=O)NC(=O)[C@@H](NC(=O)[C@H](CO)NC(=O)CN)[C@@H](C)CC)C(=O)N[C@@H](Cc1c[nH]cn1)C(=O)N[C@@H](CC(N)=O)C(=O)N[C@@H](CC(=O)O)C(=O)NCC(=O)N[C@@H](CC(=O)O)C(=O)N[C@@H](Cc1ccccc1)C(=O)N[C@@H](CCC(=O)O)C(=O)N[C@@H](CCC(=O)O)C(=O)N[C@H](C(=O)N1CCC[C@H]1C(=O)N[C@@H](CCC(=O)O)C(=O)N[C@@H](CCC(=O)O)C(=O)N[C@@H](Cc1ccc(O)cc1)C(=O)N[C@@H](CC(C)C)C(=O)N[C@@H](CCC(N)=O)C(=O)O)[C@@H](C)CC [GS-IQ22-I]
IC50 (human α-thrombin [1]): 0.01 ± 0.001 µM
Ki (human α-thrombin [2]; [3]): > 400 nM
amidolytic activity of thrombin in the presence of the peptide (human α-thrombin [2]; up to 400 nM in concentration): little affected

CC[C@H](C)[C@H](NC(=O)[C@H](CCC(=O)O)NC(=O)[C@H](CCC(=O)O)NC(=O)[C@H](Cc1ccccc1)NC(=O)[C@H](CC(=O)O)NC(=O)CNC(=O)[C@H](CC(=O)O)NC(=O)[C@H](CC(N)=O)NC(=O)[C@H](Cc1c[nH]cn1)NC(=O)[C@H](CCSC)NC(=O)[C@H](CCC(N)=O)NC(=O)[C@@H]1CCCN1C(=O)[C@H](CCCNC(=N)N)NC(=O)[C@@H]1CCCN1C(=O)[C@H](CCC(N)=O)NC(=O)[C@@H](N)Cc1ccccc1)C(=O)N1CCC[C@H]1C(=O)N[C@@H](CCC(=O)O)C(=O)N[C@@H](CCC(=O)O)C(=O)N[C@@H](Cc1ccc(O)cc1)C(=O)N[C@@H](CC(C)C)C(=O)N[C@@H](CCC(N)=O)C(=O)O [FQ22-M]
IC50 (human α-thrombin [1]): ≥ 0.01 µM

WDPRPQLHNDGDFEPIPEEYLQ [WD22-L-P]
IC50 (human α-thrombin [1]): ~0.026 µM and 0.026 µM
Ki (human α-thrombin [2]; [3]): 39 ± 4 nM

WDPRPQRHNDGDYEPIPEEYLQ [WD22-R-YP^(d)]
IC50 (human α-thrombin [1]): 0.0048 ± 0.0008 µM

FDPRPGGGGCNGDFEEIPEEYL [FD21-4GN]
IC50 (human α-thrombin [1]; peptide concentration doubling the clotting time (DCT), 37° C., '>' values: no delay in clotting time up to the concentration shown, read-out: Clotting assay, 37° C. (IC50)): 0.208 ± 0.008 µM
Ki (human α-thrombin [2]; read-out: Amidolytic assay, 25° C. (Ki), Tos-Gly-Pro-Arg-pNA, 25° C.): 300 ± 20 nM

CC[C@H](C)[C@H](N)C(=O)N[C@@H](CCC(N)=O)C(=O)N1CCC[C@H]1C(=O)N[C@@H](CCCNC(=N)N)C(=O)N1CCC[C@H]1C(=O)N[C@@H](CCC(N)=O)C(=O)N[C@H](C(=O)N[C@@H](Cc1c[nH]cn1)C(=O)N[C@@H](CC(N)=O)C(=O)N[C@@H](CC(=O)O)C(=O)NCC(=O)N[C@@H](CC(=O)O)C(=O)N[C@@H](Cc1ccccc1)C(=O)N[C@@H](CCC(=O)O)C(=O)N[C@@H](CCC(=O)O)C(=O)N[C@H](C(=O)N1CCC[C@H]1C(=O)N[C@@H](CCC(=O)O)C(=O)N[C@@H](CCC(=O)O)C(=O)N[C@@H](Cc1ccc(O)cc1)C(=O)N[C@@H](CC(C)C)C(=O)N[C@@H](CCC(N)=O)C(=O)O)[C@@H](C)CC)[C@@H](C)CC [IQ22-I]
IC50 (human α-thrombin [1]): 0.039 ± 0.003 µM

CC[C@H](C)[C@H](NC(=O)[C@H](CCC(=O)O)NC(=O)[C@H](CCC(=O)O)NC(=O)[C@H](Cc1ccccc1)NC(=O)[C@H](CC(=O)O)NC(=O)CNC(=O)[C@H](CC(=O)O)NC(=O)[C@H](CC(N)=O)NC(=O)[C@H](Cc1c[nH]cn1)NC(=O)[C@H](CO)NC(=O)[C@H](CCC(N)=O)NC(=O)[C@@H]1CCCN1C(=O)[C@H](CCCNC(=N)N)NC(=O)[C@@H]1CCCN1C(=O)[C@H](Cc1c[nH]cn1)NC(=O)[C@@H](N)Cc1ccccc1)C(=O)N1CCC[C@H]1C(=O)N[C@@H](CCC(=O)O)C(=O)N[C@@H](CCC(=O)O)C(=O)N[C@@H](Cc1ccc(O)cc1)C(=O)N[C@@H](CC(C)C)C(=O)N[C@@H](CCC(N)=O)C(=O)O [FH22]
IC50 (human α-thrombin [1]): > 0.15 µM

WDPRPQRHNDGDFEPIPEEYLQ [WD22-R-P^(d)]
IC50 (human α-thrombin [1]): 0.0081 ± 0.0011 µM

CC[C@H](C)[C@H](NC(=O)[C@H](CCC(=O)O)NC(=O)[C@H](CCC(=O)O)NC(=O)[C@H](Cc1ccccc1)NC(=O)[C@H](CC(=O)O)NC(=O)CNC(=O)[C@H](CC(=O)O)NC(=O)[C@H](CC(N)=O)NC(=O)[C@H](Cc1c[nH]cn1)NC(=O)[C@H](CO)NC(=O)[C@H](CCC(N)=O)NC(=O)[C@@H]1CCCN1C(=O)[C@H](CCCNC(=N)N)NC(=O)[C@@H]1CCCN1C(=O)[C@H](CCC(=O)O)NC(=O)[C@@H](N)Cc1ccccc1)C(=O)N1CCC[C@H]1C(=O)N[C@@H](CCC(=O)O)C(=O)N[C@@H](CCC(=O)O)C(=O)N[C@@H](Cc1ccc(O)cc1)C(=O)N[C@@H](CC(C)C)C(=O)N[C@@H](CCC(N)=O)C(=O)O [FE22]
IC50 (human α-thrombin [1]): 0.08 µM
